Reference: PMC2984425, “Safety and pharmacokinetics of novel selective vascular endothelial growth factor receptor-2 inhibitor YN968D1 in patients with advanced malignancies” (BMC Cancer, 2010)

System: patients with advanced solid tumors
Test: Treatment-related adverse events graded by NCI-CTC v3.0
Format: in vivo, human
Protocol: Medical records and laboratory tests were obtained during screening. Physical examination, routine laboratory evaluations, and performance status were assessed at baseline and at specified time points throughout the trial. AEs and concomitant medications were recorded at the end of each cycle. The safety evaluation period extended through 30 days from the last dose of study drug or through recovery to grade 1 or better from all acute toxicities associated with drug administration. Toxicity was evaluated and graded according to the NCI-CTC for Adverse Events, version 3.0.

N#CC1(c2ccc(NC(=O)c3cccnc3NCc3ccncc3)cc2)CCCC1 [apatinib]
2: Hypertension grade 1-2, No. (250 mg cohort) | Transaminase Increased grade 1-2, No. (250 mg cohort) | Anorexia grade 1-2, No. (500 mg cohort) | Mucosal ulcers grade 1-2, No. (500 mg cohort) | Neutropenia grade 1-2, No. (500 mg cohort) | Neutropenia grade 3-4, No. (500 mg cohort) | Pain grade 3-4, No. (500 mg cohort) | Thrombocytopenia grade 1-2, No. (500 mg cohort) | Hand-Food Syndrome grade 3-4, No. (750 mg cohort) | Hoarseness grade 1-2, No. (750 mg cohort) | Hypertension grade 3-4, No. (750 mg cohort) | Mucosal ulcers grade 1-2, No. (750 mg cohort) | Mucosal ulcers grade 3-4, No. (750 mg cohort) | Pain grade 3-4, No. (750 mg cohort) | Anemia grade 1-2, No. (850 mg cohort) | Diarrhea grade 1-2, No. (850 mg cohort) | Hand-Food Syndrome grade 3-4, No. (850 mg cohort)
46.67%: Proteinuria grade 1-2, % (750 mg cohort)
7: Hypertension grade 1-2, No. (500 mg cohort) | Hand-Food Syndrome grade 1-2, No. (750 mg cohort) | Neutropenia grade 1-2, No. (750 mg cohort) | Proteinuria grade 1-2, No. (750 mg cohort)
46.7%: Hand-Food Syndrome grade 1-2, % (750 mg cohort) | Neutropenia grade 1-2, % (750 mg cohort)
6: Thrombocytopenia grade 1-2, No. (750 mg cohort) | Transaminase Increased grade 1-2, No. (750 mg cohort)
25%: Hyperbilirubinemia grade 3-4, % (250 mg cohort)
26.7%: Fatigue grade 1-2, % (750 mg cohort) | Infection grade 1-2, % (750 mg cohort) | Pain grade 1-2, % (750 mg cohort) | Vomiting grade 1-2, % (750 mg cohort)
7.7%: Anemia grade 3-4, % (850 mg cohort) | Anorexia grade 1-2, % (850 mg cohort) | Dyspnea grade 1-2, % (850 mg cohort) | Hemorrhage grade 1-2, % (850 mg cohort) | Hoarseness grade 1-2, % (850 mg cohort)
5: Hemorrhage grade 1-2, No. (750 mg cohort)
13.3%: Hand-Food Syndrome grade 3-4, % (750 mg cohort) | Hoarseness grade 1-2, % (750 mg cohort) | Hypertension grade 3-4, % (750 mg cohort) | Mucosal ulcers grade 1-2, % (750 mg cohort) | Mucosal ulcers grade 3-4, % (750 mg cohort) | Pain grade 3-4, % (750 mg cohort)
63.6%: Hypertension grade 1-2, % (500 mg cohort)
9: Hypertension grade 1-2, No. (750 mg cohort)
1: Anemia grade 1-2, No. (250 mg cohort) | Hyperbilirubinemia grade 3-4, No. (250 mg cohort) | Infection grade 1-2, No. (250 mg cohort) | Proteinuria grade 3-4, No. (250 mg cohort) | Thrombocytopenia grade 1-2, No. (250 mg cohort) | Anemia grade 1-2, No. (500 mg cohort) | Diarrhea grade 1-2, No. (500 mg cohort) | Fatigue grade 1-2, No. (500 mg cohort) | Hand-Food Syndrome grade 3-4, No. (500 mg cohort) | Hemorrhage grade 3-4, No. (500 mg cohort) | Hoarseness grade 1-2, No. (500 mg cohort) | Infection grade 1-2, No. (500 mg cohort) | Proteinuria grade 3-4, No. (500 mg cohort) | Rash grade 1-2, No. (500 mg cohort) | Transaminase Increased grade 1-2, No. (500 mg cohort) | Transaminase Increased grade 3-4, No. (500 mg cohort) | Albinism grade 1-2, No. (750 mg cohort) | Fatigue grade 3-4, No. (750 mg cohort) | Rash grade 1-2, No. (750 mg cohort) | Anemia grade 3-4, No. (850 mg cohort) | Anorexia grade 1-2, No. (850 mg cohort) | Dyspnea grade 1-2, No. (850 mg cohort) | Hemorrhage grade 1-2, No. (850 mg cohort)
3: Anemia grade 1-2, No. (750 mg cohort) | Anorexia grade 1-2, No. (750 mg cohort) | Diarrhea grade 1-2, No. (750 mg cohort) | Proteinuria grade 3-4, No. (750 mg cohort)
20%: Anemia grade 1-2, % (750 mg cohort) | Anorexia grade 1-2, % (750 mg cohort) | Diarrhea grade 1-2, % (750 mg cohort) | Proteinuria grade 3-4, % (750 mg cohort)
18.2%: Anorexia grade 1-2, % (500 mg cohort) | Mucosal ulcers grade 1-2, % (500 mg cohort) | Neutropenia grade 1-2, % (500 mg cohort) | Neutropenia grade 3-4, % (500 mg cohort) | Pain grade 3-4, % (500 mg cohort) | Thrombocytopenia grade 1-2, % (500 mg cohort)
25.0%: Anemia grade 1-2, % (250 mg cohort) | Infection grade 1-2, % (250 mg cohort) | Proteinuria grade 3-4, % (250 mg cohort) | Thrombocytopenia grade 1-2, % (250 mg cohort)
30.8%: Fatigue grade 1-2, % (850 mg cohort) | Hand-Food Syndrome grade 1-2, % (850 mg cohort)
0: Thrombocytopenia grade 3-4, No. (500 mg cohort) | Vomiting grade 1-2, No. (500 mg cohort)
9%: Anemia grade 1-2, % (500 mg cohort) | Diarrhea grade 1-2, % (500 mg cohort) | Fatigue grade 1-2, % (500 mg cohort) | Hand-Food Syndrome grade 3-4, % (500 mg cohort) | Hemorrhage grade 3-4, % (500 mg cohort) | Hoarseness grade 1-2, % (500 mg cohort) | Infection grade 1-2, % (500 mg cohort) | Proteinuria grade 3-4, % (500 mg cohort) | Rash grade 1-2, % (500 mg cohort) | Transaminase Increased grade 1-2, % (500 mg cohort) | Transaminase Increased grade 3-4, % (500 mg cohort)
36.4%: Hand-Food Syndrome grade 1-2, % (500 mg cohort) | Hemorrhage grade 1-2, % (500 mg cohort) | Pain grade 1-2, % (500 mg cohort) | Proteinuria grade 1-2, % (500 mg cohort)
0%: Thrombocytopenia grade 3-4, % (500 mg cohort) | Vomiting grade 1-2, % (500 mg cohort)
33.3%: Hemorrhage grade 1-2, % (750 mg cohort)
4: Hand-Food Syndrome grade 1-2, No. (500 mg cohort) | Hemorrhage grade 1-2, No. (500 mg cohort) | Pain grade 1-2, No. (500 mg cohort) | Proteinuria grade 1-2, No. (500 mg cohort) | Fatigue grade 1-2, No. (750 mg cohort) | Infection grade 1-2, No. (750 mg cohort) | Pain grade 1-2, No. (750 mg cohort) | Vomiting grade 1-2, No. (750 mg cohort) | Fatigue grade 1-2, No. (850 mg cohort) | Hand-Food Syndrome grade 1-2, No. (850 mg cohort)
60%: Hypertension grade 1-2, % (750 mg cohort)
50.0%: Transaminase Increased grade 1-2, % (250 mg cohort)
40%: Thrombocytopenia grade 1-2, % (750 mg cohort) | Transaminase Increased grade 1-2, % (750 mg cohort)
50%: Hypertension grade 1-2, % (250 mg cohort)
15.4%: Anemia grade 1-2, % (850 mg cohort) | Diarrhea grade 1-2, % (850 mg cohort) | Hand-Food Syndrome grade 3-4, % (850 mg cohort)
6.7%: Albinism grade 1-2, % (750 mg cohort) | Fatigue grade 3-4, % (750 mg cohort) | Rash grade 1-2, % (750 mg cohort)
